Among the data in patent EP2998294A1, “Naphthyl sulfonamide phenyl derivatives as KEAP-1 modulators for the treatment of diabetes, obesity, dyslipidemia and related disorders” (SANOFI, priority 2014, dated 2016) are IC50 values, retold here.

Each structure is given as a SMILES string.

T1 sequence (Q14145 321-609): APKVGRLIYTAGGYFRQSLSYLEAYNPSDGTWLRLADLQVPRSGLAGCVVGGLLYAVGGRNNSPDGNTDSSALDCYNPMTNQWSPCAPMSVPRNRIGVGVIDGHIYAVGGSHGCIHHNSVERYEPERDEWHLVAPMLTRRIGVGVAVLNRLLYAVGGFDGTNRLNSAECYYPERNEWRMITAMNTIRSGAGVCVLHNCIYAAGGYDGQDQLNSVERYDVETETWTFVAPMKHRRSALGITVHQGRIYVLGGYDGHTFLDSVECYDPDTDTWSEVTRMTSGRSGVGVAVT

One assay has as its target T1, human Keap1 kelch domain (amino acids Ala321-Thr609) (Homo sapiens, UniProt Q14145).
T1 construct: human Keap1 kelch domain (amino acids Ala321-Thr609)
Nature of the assay: Keap1-Nrf2 peptide binding assay (fluorescence polarisation). The settings on record: binding of Keap1 kelch domain (20 nM) to fluorescently labeled Nrf2 peptide (50 nM). The procedure: A fluorescence polarisation assay was used to measure binding of the human Keap1 kelch domain (amino acids Ala321-Thr609) to a fluorescently labeled peptide containing a Keap1 binding site of human Nrf2 (Alexa633-AFFAQLQLDEETGEFL; JPT Technologies, Berlin, Germany). Two microliters of test compound in reaction buffer (phosphate-buffered saline, 2 mM DL-dithiothreitol, 0.015 % (v/v) Brij-35) containing 6 % (v/v) DMSO were mixed with two microliters of the Keap1 kelch domain in reaction buffer in a black 384-well small volume microtiter plate and incubated at ambient temperature for 15 minutes. Thereafter, two microliters were added of the fluorescently labeled Nrf2 peptide in reaction buffer, and the mixture was incubated for a further 30 minutes at ambient temperature. Final concentrations of the Keap1 kelch domain and the fluorescently labeled Nrf2 peptide were 20 nM and 50 nM, respectively.
Fluorescence polarization (FP) was measured at excitation and emission wavelengths of 635 nm and 660 nm, respectively. Positive controls for binding (two microliters of reaction buffer containing 6 % (v/v) DMSO instead of test compound in the same buffer) and negative controls (as positive controls, but without Keap1 kelch domain) were included on each microtiter plate. Data were expressed as percent-inhibition values: percentinhibition = 100⋅(1-(|FPcompound-FPnegative controle|)/(|FPpositive controle-FPnegative controle|)) [formula]
IC50 values were determined by testing different compound concentrations and fitting the resulting percent-inhibition values to the following equation using XLFit4: percentinhibition = A + (B-A)/(1 + (((IC50)/([Compound])))^D) [formula]
Parameter A was set to zero, pre-fit values for parameters B and D were set to 100 and 1, respectively.
In general terms: In fluorescence polarisation assays a small probe gives low polarisation when free and higher when bound to something large.
By IC50 is commonly meant the concentration that inhibits the measured activity by half. For the compound `N#Cc1ccc(S(=O)(=O)Nc2ccc(-c3cccc(C(=O)O)c3)c3ccccc23)c(Cl)c1` [Example 33, 3-[4-[(2-chloro-4-cyanophenyl)sulfonylamino]-1-naphthyl]benzoic acid], the IC50 turned out to be 5200 nM.
The same measure, in the same setting: for `CN1CCOc2cc(S(=O)(=O)Nc3ccc(-c4cccc(C(=O)O)c4)c4ccccc34)ccc21` [Example 43, 3-[4-[(4-methyl-2,3-dihydro-1,4-benzoxazin-7-yl)sulfonylamino]-1-naphthyl]benzoic acid] the value was 1600 nM.
Still for that read-out and setting: in the case of `O=C(O)c1cccc(-c2ccc(NS(=O)(=O)c3ccc4ncsc4c3)c3ccccc23)c1` [Example 44, 3-[4-(1,3-benzothiazol-6-ylsulfonylamino)-1-naphthyl]benzoic acid] it was 3800 nM; in that of `Cc1c(Cl)cccc1S(=O)(=O)Nc1ccc(-c2cccc(C(=O)O)c2)c2ccccc12` [Example 13, 3-[4-[(3-chloro-2-methylphenyl)sulfonylamino]-1-naphthyl]benzoic acid], 1100 nM.
The same measure, in the same setting: for `O=C(O)c1cccc(-c2ccc(NS(=O)(=O)c3c(Cl)cc(C(F)(F)F)cc3Cl)c3ccccc23)c1` [Example 52, 3-[4-[[2,6-dichloro-4-(trifluoromethyl)phenyl]sulfonylamino]-1-naphthyl]benzoic acid] the value was 1400 nM.
As for `O=C(O)c1cccc(-c2ccc(NS(=O)(=O)c3ccc(F)cc3Cl)c3ccccc23)c1` [Example 35, 3-[4-[(2-chloro-4-fluorophenyl)sulfonylamino]-1-naphthyl]benzoic acid], the IC50 was 5600 nM.
For the compound `O=C(O)c1cccc(-c2ccc(NS(=O)(=O)c3cc(Cl)cc(Cl)c3)c3ccccc23)c1` [Example 48, 3-[4-[(3,5-dichlorophenyl)sulfonylamino]-1-naphthyl]benzoic acid], the IC50 was found to be 2300 nM.

The same assay, now with this note: binding of Keap1 kelch domain (20 nM) to fluorescently labeled Nrf2 peptide (50 nM); read-out: IC50.
Consider `CC(=O)N1c2ccc(S(=O)(=O)Nc3ccc(-c4cccc(C(=O)O)c4)c4ccccc34)cc2CC1C` (stereo not drawn) [Example 27, 3-[4-[(1-acetyl-2-methyl-indolin-5-yl)sulfonylamino]-1-naphthyl]benzoic acid], for which the IC50 worked out at 3600 nM.
On the same count and under the same terms, for `COc1ccc(S(=O)(=O)Nc2ccc(-c3cc(C(=O)O)ccc3F)c3ccccc23)c(OC)c1` [Example 83, 3-[4-[(2,4-dimethoxyphenyl)sulfonylamino]-1-naphthyl]-4-fluoro-benzoic acid] the value was 2200 nM.
The same measure, in the same setting: for `Cn1cc(S(=O)(=O)Nc2ccc(-c3cc(C(=O)O)ccc3F)c3ccccc23)c(C(F)(F)F)n1` [Example 78, 4-fluoro-3-[4-[[1-methyl-3-(trifluoromethyl)pyrazol-4-yl]sulfonylamino]-1-naphthyl]benzoic acid] the value was 9700 nM.
Still for that read-out and setting: for `O=C(O)c1ccc(F)c(-c2ccc(NS(=O)(=O)c3cc(Cl)ccc3Cl)c3ccccc23)c1` [Example 76, 3-[4-[(2,5-dichlorophenyl)sulfonylamino]-1-naphthyl]-4-fluoro-benzoic acid] the value was 2400 nM.
For the compound `CCCCCCCCc1cc(-c2cccc(C(=O)O)c2)c2ccccc2c1NS(=O)(=O)c1c(C)c(C)cc(C)c1C` [Example 59, 3-[3-octyl-4-[(2,3,5,6-tetramethylphenyl)sulfonylamino]-1-naphthyl]benzoic acid], the IC50 is 46000 nM.
Still for that read-out and setting: in the case of `CCCCn1cc(S(=O)(=O)Nc2ccc(-c3cc(C(=O)O)ccc3F)c3ccccc23)c(C)n1` [Example 70, 3-[4-[(1-butyl-3-methyl-pyrazol-4-yl)sulfonylamino]-1-naphthyl]-4-fluorobenzoic acid] it was 2600 nM; in that of `O=C(O)c1cccc(-c2ccc(NS(=O)(=O)c3ccc4c(c3)OCCO4)c3ccccc23)c1` [Example 55, 3-[4-(2,3-dihydro-1,4-benzodioxin-6-ylsulfonylamino)-1-naphthyl]benzoic acid], 4300 nM; in that of `Cc1c(S(=O)(=O)Nc2ccc(-c3cccc(C(=O)O)c3)c3ccccc23)cnn1C1CCCC1` [Example 67, 3-[4-[(1-cyclopentyl-5-methyl-pyrazol-4-yl)sulfonylamino]-1-naphthyl]benzoic acid], 1800 nM.
